Measured values taken from publication PMC5207512, “Inhibition of Helicobacter pylori and Its Associated Urease by Palmatine: Investigation on the Potential Mechanism” (PLoS ONE, 2017).
Where two headings read alike, the source gives them in different places.

Assays:
H. pylori urease (HPU) = biological target: T1, H. pylori urease (HPU) (Helicobacter pylori, UniProt P69996); assay: biochemical; conditions: read-out: Residual urease activity (percent of control), Fig 4A HPU, Pal 0.5 mM, thiols 1.25 mM, replicates
T1 construct: HPU was prepared as previously described; made in house
Method: (§1) For the protection with thiols-containing compounds, the mixture consisting of 0.25 mg/mL urease (HPU or JBU), 0.5 mM Pal (for both HPU and JBU) and 1.25 mM thiols (DTT, GSH and L-cys) was incubated for 5, 10, 20, and 40 min at 37°C, respectively. The control sample instead of the protectors contained a proper volume of respective buffer.

jack bean urease (JBU) = biological target: T2, jack bean urease (JBU) (Canavalia ensiformis, UniProt P07374); assay: biochemical; conditions: read-out: Residual urease activity (percent of control), Fig 4B JBU, Pal 0.5 mM, thiols 1.25 mM, replicates
T2 construct: Urease from jack bean (Canavalia ensiformis, JBU); purchased Sigma-Aldrich (St Louis, MO, USA) type III (catalogue number not given)
Method: as §1

T1 sequence (P14916 whole entry): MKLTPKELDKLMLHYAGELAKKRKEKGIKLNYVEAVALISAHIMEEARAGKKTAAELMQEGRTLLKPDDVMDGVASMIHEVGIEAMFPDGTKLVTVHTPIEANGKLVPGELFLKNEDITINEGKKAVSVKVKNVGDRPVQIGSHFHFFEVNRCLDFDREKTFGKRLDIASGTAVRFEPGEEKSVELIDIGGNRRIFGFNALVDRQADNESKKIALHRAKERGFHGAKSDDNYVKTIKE
T1 sequence (P69996 whole entry): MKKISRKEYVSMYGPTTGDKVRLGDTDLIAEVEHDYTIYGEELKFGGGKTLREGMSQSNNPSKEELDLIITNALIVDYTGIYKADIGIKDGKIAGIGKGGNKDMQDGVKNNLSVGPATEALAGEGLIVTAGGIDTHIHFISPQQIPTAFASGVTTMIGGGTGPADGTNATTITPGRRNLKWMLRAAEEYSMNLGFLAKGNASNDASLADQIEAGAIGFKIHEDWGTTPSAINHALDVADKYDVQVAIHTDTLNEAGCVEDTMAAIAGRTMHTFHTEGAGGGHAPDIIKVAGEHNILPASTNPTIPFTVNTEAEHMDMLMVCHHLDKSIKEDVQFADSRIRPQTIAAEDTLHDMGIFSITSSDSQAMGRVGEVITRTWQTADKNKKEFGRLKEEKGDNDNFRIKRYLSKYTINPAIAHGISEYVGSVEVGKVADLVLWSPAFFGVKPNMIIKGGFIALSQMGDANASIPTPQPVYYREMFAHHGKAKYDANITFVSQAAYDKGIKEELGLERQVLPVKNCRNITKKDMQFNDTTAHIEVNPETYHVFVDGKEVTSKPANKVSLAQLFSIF
T2 sequence (P07374 whole entry, looked up): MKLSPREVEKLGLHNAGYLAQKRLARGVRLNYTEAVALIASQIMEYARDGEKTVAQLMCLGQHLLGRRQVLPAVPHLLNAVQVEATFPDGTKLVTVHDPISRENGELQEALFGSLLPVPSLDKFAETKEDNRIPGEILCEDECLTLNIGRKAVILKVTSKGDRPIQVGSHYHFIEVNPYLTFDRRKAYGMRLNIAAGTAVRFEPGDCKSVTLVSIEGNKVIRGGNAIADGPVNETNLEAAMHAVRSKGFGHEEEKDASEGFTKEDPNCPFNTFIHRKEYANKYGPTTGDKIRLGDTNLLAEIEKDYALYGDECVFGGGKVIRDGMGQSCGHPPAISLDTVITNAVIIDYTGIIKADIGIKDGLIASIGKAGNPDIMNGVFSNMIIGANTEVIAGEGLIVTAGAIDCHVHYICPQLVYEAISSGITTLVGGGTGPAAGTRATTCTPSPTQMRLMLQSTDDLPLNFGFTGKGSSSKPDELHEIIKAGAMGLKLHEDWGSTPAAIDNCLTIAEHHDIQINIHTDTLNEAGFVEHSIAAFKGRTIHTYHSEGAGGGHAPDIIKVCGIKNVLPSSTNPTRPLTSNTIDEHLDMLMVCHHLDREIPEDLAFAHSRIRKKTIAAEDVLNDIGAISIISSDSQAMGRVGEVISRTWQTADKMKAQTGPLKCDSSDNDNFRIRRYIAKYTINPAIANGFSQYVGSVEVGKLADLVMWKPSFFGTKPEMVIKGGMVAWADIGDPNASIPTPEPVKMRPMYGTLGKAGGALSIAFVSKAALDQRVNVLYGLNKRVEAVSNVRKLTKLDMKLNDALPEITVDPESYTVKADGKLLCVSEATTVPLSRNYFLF

COc1cc2c(cc1OC)-c1cc3ccc(OC)c(OC)c3c[n+]1CC2 [Pal, Palmatine]
remaining activity at 500 µM (H. pylori urease (HPU); 5 min incubation): 68.6% | remaining activity at 500 µM (H. pylori urease (HPU); 10 min incubation): 62.4% | remaining activity at 500 µM (H. pylori urease (HPU); 20 min incubation): 40.4% | remaining activity at 500 µM (H. pylori urease (HPU); 40 min incubation): 24.2% | remaining activity at 500 µM (jack bean urease (JBU); 5 min incubation): 30.8% | remaining activity at 500 µM (jack bean urease (JBU); 10 min incubation): 35.2% | remaining activity at 500 µM (jack bean urease (JBU); 20 min incubation): 34.3% | remaining activity at 500 µM (jack bean urease (JBU); 40 min incubation): 32.7%
